Usually EC50 stands for the midpoint of the concentration-response curve.

SMILES strings stand for the structures.

The values that follow come from US20240368096A1 (Enanta Pharmaceuticals, Inc., priority 2022, published 2024).

This assay has as its system HBV. In words: HBV infection in HepG2-NTCP cells (HBeAg AlphaLISA in supernatants). In kind it is cell-based. The settings on record: Hepatitis B virus, 192 h; HBV infection of HepG2-NTCP cells; HBeAg in supernatants at day 8 post infection; read-out: Cellular EC50. On the procedure: HepG2-NTCP A3 cells were maintained in DMEM media supplemented with GlutaMAX™ 10% fetal bovine serum, 1% penicillin/streptomycin, and 5 μg/mL puromycin at 37° C. in a humidified atmosphere with 5% CO2 in a collagen-coated tissue culture flask.
HepG2-NTCP cells were seeded in 384 well plate containing 16,000 cells/well two days prior to the infection. On the day of infection, compounds were 3-fold serially diluted in DMSO and pre-incubated with HepG2-NTCP cells for two hours before purified HBV addition. HBV infection was carried out at 2000 GE/cell with 4% PEG, and the final concentration of DMSO is 0.5%. On day one post infection, HBV-containing media was aspirated, cells were washed once with PBS and then maintained in 2.5% DMSO containing media for the remainder of the assay.
Supernatants from infected HepG2-NTCP cells were collected at day 8 post infection, and the amount of viral antigen HBeAg was measured by HBeAg AlphaLISA detection kit (PerkinElmer) following the manufacturer's recommended protocol. Irrespective of readout, compound concentrations that reduce viral product accumulation in supernatants by […] relative to DMSO controls (EC50) are reported. EC50 ranges are as follows: A<0.1 μM; B 0.1-1 μM; C>1 μM.
For orientation: In Alpha technology, singlet oxygen from a donor bead excites a nearby acceptor bead.

Turning to `CC(C)C[C@@H]1CN(c2ccccc2)c2cc(-c3cccc(NC=O)c3O)c(-c3ccc(F)c(C(=O)O)c3)cc2S(=O)(=O)N1C` [Example 577], the EC50 is above 1000 nM.
Under `Cc1ccc(Cl)c(Oc2cc3c(cc2-c2ccc(F)c(C(=O)O)c2)S(=O)(=O)N(C)[C@H](CC(C)C)CN3c2ccccc2)c1` [Example 436] stands below 100 nM.
With `CN1[C@H](C2CCCCC2)CN(c2ccccc2)c2cc(Cl)c([C@H]3C[C@@H](C(=O)O)C3)cc2S1(=O)=O` [Example 607, (1S,3s)-3-((R)-7-chloro-3-cyclohexyl-2-methyl-1,1-dioxido-5-phenyl-2,3,4,5-tetrahydrobenzo[f][1,2,5]thiadiazepin-8-yl)cyclobutane-1-carboxylic acid], the EC50 was above 1000 nM.
With `CN1[C@H](C2CCCCC2)CN(c2ccccc2)c2cc(N3CCN(S(C)(=O)=O)CC3)c(-c3ccc(F)c(C(=O)O)c3)cc2S1(=O)=O` [Example 536], the EC50 is 100 to 1000 nM.
Under `CN1[C@H](C2CCCCC2)CN(c2ccccc2)c2cc(OC3CCCC3)c(-c3ccc(F)c(C(=O)O)c3)cc2S1(=O)=O` [Example 373] stands below 100 nM; under `CCCC[C@@H]1CN(c2ccccc2)c2cc(C)c(-c3ccc(F)c(C(=O)O)c3)cc2S(=O)(=O)N1C` [Example 566, (R)-5-(3-butyl-2,7-dimethyl-1,1-dioxido-5-phenyl-2,3,4,5-tetrahydrobenzo[f][1,2,5]thiadiazepin-8-yl)-2-fluorobenzoic acid], 100 to 1000 nM; under `CCCC[C@@H]1CN(c2ccccc2)c2cc(N3CCCC3)c(-c3ccc(F)c(C(=O)O)c3)cc2S(=O)(=O)N1C` [Example 520, (R)-5-(3-butyl-2-methyl-1,1-dioxido-5-phenyl-7-(pyrrolidin-1-yl)-2,3,4,5-tetrahydrobenzo[f][1,2,5]thiadiazepin-8-yl)-2-fluorobenzoic acid], 100 to 1000 nM.
Under `CC(=O)NS(=O)(=O)c1cc(-c2cc3c(cc2Cl)N(c2ccccc2)C[C@@H](C2CCCCC2)N(C)S3(=O)=O)ccc1F` [Example 223] stands below 100 nM.
With `CN1[C@H](C2CCC2)CN(c2ccccc2)c2cc(Cl)c(-c3ccc(O)c(C(=O)O)c3)cc2S1(=O)=O` [Example 159], the EC50 is 100 to 1000 nM.
`CN1[C@H](C2CCCCC2)CN(c2cccc(F)c2)c2cc(Cl)c(-c3ccc(F)c(C(=O)O)c3)cc2S1(=O)=O` [Example 295]: the EC50 fell in the range of 100 to 1000 nM.
For the molecule `CN1[C@H](C2CCCCC2)CN(c2cncnc2)c2cc(Cl)c(-c3ccc(F)c(C(=O)O)c3)cc2S1(=O)=O` [Example 286], the concentration giving a half-maximal response (EC50) was in the range of 100 to 1000 nM.
On to `CC(C)[C@@H]1CN(c2ccccc2)c2cc(Cl)c(-c3ccc(Cl)c(C(=O)O)c3)cc2S(=O)(=O)N1C` [Example 62], for which the EC50 was below 100 nM.
Turning to `CC(C)C[C@@H]1CN(c2ccccc2)c2cc(Oc3cccc(Cl)c3)c(-c3ccc(F)c(C(=O)O)c3)cc2S(=O)(=O)N1C` [Example 432], the EC50 fell in the range of 100 to 1000 nM.
Under `CC(C)C[C@@H]1CN(c2ccccc2)c2cc(OCc3cncs3)c(-c3ccc(F)c(C(=O)O)c3)cc2S(=O)(=O)N1C` [Example 458] stands below 100 nM; under `COc1cc2c(cc1-c1cccc(C(=O)O)c1)S(=O)(=O)N1Cc3ccccc3C1CN2c1ccccc1` (centres unmarked) [Example 16], 100 to 1000 nM.
For `CC(C)C[C@@H]1CN(c2ccccc2)c2cc(OC3(C)CCCC3)c(-c3ccc(Cl)c(C(=O)O)c3)cc2S(=O)(=O)N1C` [Example 454], the EC50 is below 100 nM.
Regarding `CN1[C@H](C2CCCCC2)CN(c2ccccc2)c2cc(OCc3cncn3C)c(-c3ccc(F)c(C(=O)O)c3)cc2S1(=O)=O` [Example 390], the EC50 was above 1000 nM.
As to `CCCC[C@@H]1CN(c2ccccc2)c2cc(Nc3ccccc3F)c(-c3ccc(F)c(C(=O)O)c3)cc2S(=O)(=O)N1C` [Example 522], the EC50 was below 100 nM.
Under `CN1[C@H](CC2CCC2)CN(c2ccccc2)c2cc(Cl)c(-c3ccc(Cl)c(C(=O)O)c3)cc2S1(=O)=O` [Example 76] stands 100 to 1000 nM; under `CN1[C@H](C2CCCCC2)CN(c2ccccc2)c2cc(OC3CN(C(=O)OC(C)(C)C)C3)c(-c3ccc(F)c(C(=O)O)c3)cc2S1(=O)=O` [Example 398], below 100 nM; under `CN1[C@H](Cc2ccc(Cl)cc2)CN(c2ccccc2)c2cc(Cl)c(-c3ccc(F)c(C(=O)O)c3)cc2S1(=O)=O` [Example 49], above 1000 nM.
`CCCCC[C@H](C)Oc1cc2c(cc1-c1cc(F)c(C(=O)O)s1)S(=O)(=O)N(C)[C@H](C1CCCCC1)CN2c1ccccc1` [Example 490]: the EC50 was below 100 nM.
As for `CC(C)CCCOc1cc2c(cc1-c1ccc(F)c(C(=O)O)c1)S(=O)(=O)N(C)[C@H](C1CCCCC1)CN2c1ccccc1` [Example 360], the EC50 is below 100 nM.
`CN1[C@H](C2CCCCC2)CN(c2ccc(C#N)cc2)c2cc(Cl)c(-c3ccc(F)c(C(=O)O)c3)cc2S1(=O)=O` [Example 290]: the EC50 is 100 to 1000 nM.
For the molecule `CN1[C@H](C2CCCCC2)CN(c2ccccc2)c2cc(Cl)c(-c3cc(NC(=O)OC4CCC4)c(C(=O)O)s3)cc2S1(=O)=O` [Example 250], the EC50 was below 100 nM.
With `CCCC[C@H]1CN(c2ccccc2)c2cc(N(C)C)c(-c3cccc(C(=O)O)c3)cc2S(=O)(=O)N1C` [Example 542], the EC50 was above 1000 nM.
Turning to `CN1[C@H](C2CCCCC2)CN(c2ccccc2)c2cc(Cl)c(-c3cc(NC(=O)OCC4CC(F)(F)C4)c(C(=O)O)s3)cc2S1(=O)=O` [Example 253], the EC50 is below 100 nM.
Take `CC(C)CC1CN(c2ccccc2)c2cc(Cl)c(-c3cncc(C(=O)O)c3)cc2S(=O)(=O)N1C` (centres unmarked) [Example 35]: the concentration giving a half-maximal response (EC50) lay in the range of 100 to 1000 nM.
On to `CC(C)CC1CN(c2ccccc2)c2cc(Cl)c(-c3ccc(F)c(C(=O)O)c3)cc2S(=O)(=O)N1C` (centres unmarked) [Example 34], for which the EC50 was below 100 nM.
Regarding `CN1[C@H](C2CCCCC2)CN(c2ccccc2)c2cc(OCC(F)(F)F)c(-c3ccc(NC(=O)OCc4ccccc4)c(C(=O)O)c3)cc2S1(=O)=O` [Example 480], the EC50 is below 100 nM.
`CCO[C@@H](C)[C@@H]1CN(c2ccccc2)c2cc(Cl)c(-c3ccc(F)c(C(=O)O)c3)cc2S(=O)(=O)N1C` [Example 89]: the EC50 was 100 to 1000 nM.
Turning to `CN1[C@H](C2CCCCC2)CN(c2ccccc2)c2cc(Cl)c(-c3cccc(C(=O)O)c3F)cc2S1(=O)=O` [Example 149, (R)-3-(7-chloro-3-cyclohexyl-2-methyl-1,1-dioxido-5-phenyl-2,3,4,5-tetrahydrobenzo[f][1,2,5]thiadiazepin-8-yl)-2-fluorobenzoic acid], the EC50 is below 100 nM.
With `CN1[C@H](C2CCC(F)(F)CC2)CN(c2ccccc2)c2cc(Cl)c(-c3ccc(Cl)c(C(=O)O)c3)cc2S1(=O)=O` [Example 29], the EC50 was 100 to 1000 nM.
`CSc1cc2c(cc1-c1cccc(C(=O)O)c1)S(=O)(=O)N1CC3(CC3)CC1CN2c1ccccc1` (centres unmarked) [Example 18, 3-(8-(methylthio)-5,5-dioxido-10-phenyl-1,10,11,11a-tetrahydro-3H-spiro[benzo[f]pyrrolo[1,2-b][1,2,5]thiadiazepine-2,1′-cyclopropan]-7-yl)benzoic acid]: the EC50 fell in the range of 100 to 1000 nM.
Take `CCOC[C@@H]1CN(c2ccccc2)c2cc(Cl)c(-c3ccc(F)c(C(=O)O)c3)cc2S(=O)(=O)N1C` [Example 93, (S)-5-(7-chloro-3-(ethoxymethyl)-2-methyl-1,1-dioxido-5-phenyl-2,3,4,5-tetrahydrobenzo[f][1,2,5]thiadiazepin-8-yl)-2-fluorobenzoic acid]: the EC50 was 100 to 1000 nM.
On to `CC(C)C[C@@H]1CN(c2ccccc2)c2cc(OCC3CCCN3C)c(-c3ccc(F)c(C(=O)O)c3)cc2S(=O)(=O)N1C` (some centres unmarked) [Example 449], for which the EC50 was above 1000 nM.
`CC(C)OC[C@@H]1CN(c2ccccc2)c2cc(Cl)c(-c3ccc(F)c(C(=O)O)c3)cc2S(=O)(=O)N1C` [Example 96, (S)-5-(7-chloro-3-(isopropoxymethyl)-2-methyl-1,1-dioxido-5-phenyl-2,3,4,5-tetrahydrobenzo[f][1,2,5]thiadiazepin-8-yl)-2-fluorobenzoic acid]: the EC50 was in the range of 100 to 1000 nM.
Consider `CSc1cc2c(cc1-c1cccc(C(=O)O)c1)S(=O)(=O)N1Cc3ccccc3C1CN2c1ccccc1` (centres unmarked) [Example 22], for which the EC50 is above 1000 nM.
On to `CN1[C@H](C2CCCCC2)CN(c2ccccc2)c2cc(Cl)c(-c3ccc(C(F)(F)F)c(C(=O)O)c3)cc2S1(=O)=O` [Example 143, (R)-5-(7-chloro-3-cyclohexyl-2-methyl-1,1-dioxido-5-phenyl-2,3,4,5-tetrahydrobenzo[f][1,2,5]thiadiazepin-8-yl)-2-(trifluoromethyl)benzoic acid], for which the EC50 lay in the range of 100 to 1000 nM.
As for `CC(C)C[C@@H]1CN(c2ccccc2)c2cc(Oc3ccccc3F)c(-c3ccc(F)c(C(=O)O)c3)cc2S(=O)(=O)N1C` [Example 429], the EC50 is below 100 nM.
Under `CN1[C@H](C2CCCCC2)CN(c2ccccc2)c2cc(OCCc3ccco3)c(-c3ccc(F)c(C(=O)O)c3)cc2S1(=O)=O` [Example 345] stands below 100 nM; under `CC(C)COC(=O)Nc1c(F)cc(-c2cc3c(cc2Cl)N(c2ccccc2)C[C@@H](C2CCCCC2)N(C)S3(=O)=O)cc1C(=O)O` [Example 277], below 100 nM; under `CN1[C@H](C2CCCCC2)CN(c2cccc(OCC(F)(F)F)c2)c2cc(Cl)c(-c3ccc(F)c(C(=O)O)c3)cc2S1(=O)=O` [Example 313], below 100 nM.
For the molecule `CN1[C@H](C2CCCCC2)CN(c2ccccc2)c2cc(OCc3csc(Cl)c3)c(-c3cc(F)c(C(=O)O)s3)cc2S1(=O)=O` [Example 487], the EC50 is below 100 nM.
